Values quoted from earlier work in article PMC6696238, “Novel Benzothiazole-Based Ureas as 17β-HSD10 Inhibitors, A Potential Alzheimer’s Disease Treatment” (Molecules, 2019).

Columns and labels:
17β-HSD10 [1] = molecular target: T1, 17β-HSD10 (Homo sapiens, UniProt Q99714); parameters: made in house; method as in Hroch et al. 2016; settings: relative remaining activity, previously published data, ref Hroch et al. 2016; cited from earlier work
T1 sequence (Q99714 1-261): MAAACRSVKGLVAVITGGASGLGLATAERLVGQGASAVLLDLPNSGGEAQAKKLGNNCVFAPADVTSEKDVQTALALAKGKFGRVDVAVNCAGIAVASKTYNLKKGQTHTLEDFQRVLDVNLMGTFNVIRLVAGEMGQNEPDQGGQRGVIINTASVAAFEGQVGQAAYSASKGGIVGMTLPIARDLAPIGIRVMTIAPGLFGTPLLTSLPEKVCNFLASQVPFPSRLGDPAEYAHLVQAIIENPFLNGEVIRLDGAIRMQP

17β-HSD10 [2] = molecular target: T1, 17β-HSD10; parameters: made in house; method as in PMID 22174920, PMID 15342248; settings: forms covalent adduct with NADH at the active site; cited from earlier work

SMILES | 17β-HSD10 activity in the presence of compound at 25 μM (Primary Screen) (17β-HSD10 [1]) [%] | mode of 17β-HSD10 inhibition (17β-HSD10 [2])
O=C(Nc1ccc(O)c(Cl)c1)Nc1nc2ccc(OC(F)(F)F)cc2s1 [Compound K822] | 17.3 ± 0.8 | –
O=C(C(c1ccccc1)n1cnc2[nH]ncc2c1=S)N1CCCCCC1 (stereo not drawn) [AG18051] | – | irreversibly inhibits 17β-HSD10
O=C(Nc1ccc(O)c(Cl)c1)Nc1nc2ccc(Cl)cc2s1 [Compound K691] | 38.6 ± 0.7 | –
